Measurements published in patent US6525001B1, “Substituted pyrimidine and pyridine herbicides” (Mid-American Commercialization Corporation, priority 1997, dated 2003).

melting point | Compound
82 to 91 °C | Cc1cnc(-n2ccc(C(F)(F)F)n2)nc1C(=O)c1cccc(C(F)(F)F)c1 [Example 4, [5-methyl-2-[3-(trifluoromethyl)-1H-pyrazol-1-yl]-4-pyrimidinyl][3-(trifluoromethyl)phenyl]methanone]
98 to 100 °C | Cc1cnc(-c2ccc(C(F)(F)F)cc2)nc1C(=O)c1cccc(C(F)(F)F)c1 [Example 5, [5-methyl-2-[4-(trifluoromethyl)phenyl]-4-pyrimidinyl][3-(trifluoromethyl)phenyl]methanone]
